Experiment: Binding affinity to Trypanosoma cruzi farnesyl diphosphate synthase at 250 uM at 28 degC by isothermal titration calorimetry
CCCNCC(P(=O)(O)O)P(=O)(O)O gave a Kd of 25 nM.
Compound CCCCCNCC(P(=O)(O)O)P(=O)(O)O has a Kd of 1030 nM.
For CCCCCCCNCC(P(=O)(O)O)P(=O)(O)O, the Kd was 58.8 nM.
In the case of CCCCCCNCC(P(=O)(O)O)P(=O)(O)O, the Kd is reported as 400 nM.
